{
  "source": "patent US12636291B2",
  "about": "“Compositions and methods relating to use of agonists of ALPHA5-containing GABAA receptors” (Centre for Addiction and Mental Health, priority 2019, dated 2026)",
  "tested_on": "SV129 mice",
  "assay": "Neurogenesis (proliferation, survival, maturation) in the SV129 mouse model",
  "assay_type": "in vivo",
  "conditions": "compared to VEH",
  "description": "We next assessed the effects of GL-II-73 on neurogenesis using the SV129 mouse model Kim et al. 2017. Neural Plasticity, doi.org.10.1155/2017/5863258. Specifically, we assessed the effects of treatment on neuronal cell proliferation, survival, and maturation. It is now recognized that neurogenesis occurs not only during development, but also in the adult brain. […] Specifically, adult neurogenesis is known to occur in three regions in the mammalian brain: (i) the subgranular zone (SGZ) of the dentate gyrus in the hippocampus, which is a region that is involved in regulating learning and memory; (ii) the subventricular zone (SVZ), which is situated throughout the lateral walls of the brain's lateral ventricles; and (ii) the amygdala. New neurons born in the SGZ migrate into the granule cell layer of the dentate gyrus and eventually become granule cells. These newborn neurons integrate into the existing circuitry and receive functional input. Adult neurogenesis in the hippocampus is therefore defined as the progression from neural stem cell to mature dentate granule neuron. All stages of adult neurogenesis are regulated by physiological activity, including the proliferation, differentiation, fate determination of adult neural stem cells (NSCs) and progenitors, and the survival, maturation, and integration of newborn neurons.\nThe stages of neurogenesis can be broken down into (i) proliferation, (ii) survival of the newly formed cells, and (iii) their maturation. Each can be evaluated using specific markers for proliferation, survival, and maturation. […] BrdU can be used to show survival of the newly proliferating cells since it is incorporated into the newly synthesized DNA of replicating cells and is then maintained in the newly formed cells. Thus, quantitative immunohistochemistry against BrdU is used as a proxy of survival. Finally, doublecortin can be used as a proxy of maturation. Previous studies have shown that all steps of neurogenesis were down regulated in the SV129 mice, and further that chronic treatment with fluoxetine, a first line monoaminergic antidepressant, increased the neurogenesis in this mouse model. We therefore used this model system to assess the effects of chronic treatment with GL-II-73 on neurogenesis.\nFluoxetine treatment was used as a positive control in each experiment.",
  "data": [
    {"smiles": "CNCCC(Oc1ccc(C(F)(F)F)cc1)c1ccccc1", "note": "(stereo not shown) [FLX, fluoxetine]", "values": [
      {"measurement": "proliferation: number of K167-positive cells", "setting": "chronic treatment (4 weeks), FIG. 13A, FLX p<0.001, GL-II-73 p<0.05", "value": "increased the number of K167-positive cells"},
      {"measurement": "survival: BrdU-positive cells", "setting": "chronic treatment (4 weeks), FIG. 13B", "value": "only FLX increased BrdU-positive cells"},
      {"measurement": "maturation: number of DCX+cells", "setting": "chronic treatment, FIG. 14A, ps<0.05", "value": "increased with FLX compared to VEH"},
      {"measurement": "maturation index (DCX+cells possessing tertiary dendrites over the total DCX+cells)", "setting": "chronic treatment, FIG. 14B, ps<0.01", "value": "an increase with both FLX and GL-II-73"}
    ]}
  ]
}
